The test system of experiment [1] is HRE-bla ME-180 cells. The experiment can be described thus: Cell proliferation assay (viability, MTT, 1% FBS). It counts as cell-based, human. The essentials:
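Viable cell number was measured with the CellTiter 96 (MTT) kit after compounds were applied for a 16 h normoxic (21% O2) pretreatment, followed by further normoxic or hypoxic (1% O2) culture. Cells: 2×10^4 ME-180 per well, Opti-MEM + 1% FBS, 0.5% DMSO vehicle.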

Experiment [2] concerns HRE-bla ME-180 cells. The experiment can be described thus: Reporter gene assay (HRE-bla ME-180 HIF reporter, GeneBLAzer). The format is cell-based, human. As to conditions: for EC50: 24 hour normoxia. The essentials: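 A FRET β-lactamase readout of HIF transcription was used. After compound treatment in 0.3% DMSO/media under normoxic conditions, 20 μl of 6× LiveBLAzer-FRET B/G (CCF4-AM) substrate was added. Plates sat 3 hr at room temperature in the dark and were read at 409 Ex/460Em and 409Ex/530Em on a Synergy 2. Inhibition was compared against DMSO vehicle controls, with chetomin as positive control.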
In general terms: A reporter such as luciferase makes a cellular process visible.

In experiment [3] the target is T1, flag-tagged HIF1α (AA 786-826) / His6-tagged p300 (AA 323-423) complex (Homo sapiens, UniProt Q09472).
T1 construct: His6-tagged p300 (AA 323-423); made in house; host or cells: E. coli (pETDuet vector)
The experiment can be described thus: HIF1α p300 displacement assay (TR FRET, +CHAPS). It counts as binding. As to conditions: read-out: IC50 (nM) (HIF1α_p300 Displacement + CHAPS). The essentials: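 In this TR-FRET displacement format, peptides compete HIF1α C-terminal transactivation domain off p300-CH. They were preincubated 1 h at room temperature with 300 nM complex in HEPES pH 7.4/NaCl buffer with 7.5 mM CHAPS and 1 mM DTT. Anti-His-D2 (4 nM) and anti-Flag-K (0.5 μM) followed for 2 h, and a one-site fit of the fluorescence ratio gave IC50.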

Bridge positions count the residues as written; N and C are the ends. Square brackets hold non-standard residues; d marks the D form. Peptide text beside a SMILES is read from it. S5 = C=CCCC[C@](C)(N)C(=O)O; Nle = CCCC[C@H](N)C(=O)O

The term EC50 denotes the concentration giving half of the maximal effect. By IC50 is commonly meant the concentration that gives 50% inhibition.

`CCCC[C@@H]1NC(=O)[C@H](CC(C)C)NC(=O)[C@H]([C@@H](C)O)NC(=O)[C@@](C)(NC(=O)[C@H](CCC(=O)O)NC(=O)[C@H](CC(=O)O)NC(=O)[C@@H](NC(=O)[C@H](Cc2ccccc2)NC(C)=O)[C@@H](C)CC)CCCC=CCCCC2(CCCC=CCCC[C@](C)(C(=O)N[C@@H](CCCC)C(=O)N[C@@H](C)C(=O)N[C@@H](CC(C)C)C(N)=O)NC(=O)[C@H]([C@@H](C)CC)NC(=O)[C@H](C(C)C)NC(=O)[C@H](CC(C)C)NC2=O)NC1=O` (some centres unmarked) [SP-207]: the “Viability 1% FBS AVG (MTT V3-24 hr Normoxia) (μM)” value (shortened to “Viability 1% FBS AVG”) in experiment [1] is reported as “++++ (≥30: ++++)”. Further, in experiment [2], the “18 h Avg % max inhibition at top conc (HIF Rptr-24 hrs normoxia) (μM)” value (“18 h Avg % max inhibition at top conc” below) is reported as “+ (<10: +)” and the EC50 was above 30 µM. The IC50 in experiment [3] is at most 200 nM.
On to `CCCC[C@@H]1NC(=O)[C@H](CC(C)C)NC(=O)[C@H](CC(N)=O)NC(=O)[C@@](C)(NC(=O)[C@H](CCC(=O)O)NC(=O)[C@H](CC(=O)O)NC(=O)[C@@H](NC(=O)[C@H](Cc2ccccc2)NC(C)=O)[C@@H](C)CC)CCCC=CCCCC2(CCCC=CCCC[C@](C)(C(=O)N[C@@H](CCCC)C(=O)N[C@@H](C)C(=O)N[C@@H](CC(C)C)C(N)=O)NC(=O)[C@H]([C@@H](C)CC)NC(=O)[C@H](C(C)C)NC(=O)[C@H](CC(C)C)NC2=O)NC1=O` (some centres unmarked) [SP-208], for which, in experiment [1], the “Viability 1% FBS AVG” value was “++ (≤5 but <15: ++)”. In experiment [2], the “18 h Avg % max inhibition at top conc” value is listed as “+++ (≤25 but <50: +++)” and the EC50 is 5 to 15 µM. For the same compound, the IC50 in experiment [3] is above 700 nM.
For the compound `CCCC[C@@H]1NC(=O)[C@H](CC(C)C)NC(=O)[C@H](C(C)C)NC(=O)[C@@](C)(NC(=O)[C@H](CCC(=O)O)NC(=O)[C@H](CC(=O)O)NC(=O)[C@@H](NC(=O)[C@H](Cc2ccccc2)NC(C)=O)[C@@H](C)CC)CCCC=CCCCC2(CCCC=CCCC[C@](C)(C(=O)N[C@@H](CCCC)C(=O)N[C@@H](C)C(=O)N[C@@H](CC(C)C)C(N)=O)NC(=O)[C@H]([C@@H](C)CC)NC(=O)[C@H](C(C)C)NC(=O)[C@H](CC(N)=O)NC2=O)NC1=O` (some centres unmarked) [SP-210], the “Viability 1% FBS AVG” value in experiment [1] is “+ (<5: +)”. In experiment [2], the “18 h Avg % max inhibition at top conc” value is on record as “++++ (≥50: ++++)” and the EC50 fell in the range of 5 to 15 µM. Moreover, the half-inhibitory concentration (IC50) in experiment [3] was 200 to 400 nM.
The matching figures for `CCCC[C@@H]1NC(=O)[C@H](CC(C)C)NC(=O)[C@H](C(C)C)NC(=O)[C@@](C)(NC(=O)[C@H](CCC(=O)O)NC(=O)[C@H](CC(=O)O)NC(=O)[C@@H](NC(=O)[C@H](Cc2ccccc2)NC(C)=O)[C@@H](C)CC)CCCC=CCCCC2(CCCC=CCCC[C@](C)(C(=O)N[C@@H](C)C(=O)N[C@@H](C)C(=O)N[C@@H](CC(C)C)C(N)=O)NC(=O)[C@H]([C@@H](C)CC)NC(=O)[C@H](C(C)C)NC(=O)[C@H](CC(C)C)NC2=O)NC1=O` (some centres unmarked) [SP-211]: “++++ (≥30: ++++)”, “+ (<10: +)”, above 30 µM and 200 to 400 nM.
The matching figures for `CCCC[C@@H]1NC(=O)[C@H](CC(C)C)NC(=O)[C@H](C(C)C)NC(=O)[C@@](C)(NC(=O)[C@H](CCC(=O)O)NC(=O)[C@H](CC(=O)O)NC(=O)[C@@H](NC(=O)[C@H](Cc2ccccc2)NC(C)=O)[C@@H](C)CC)CCCC=CCCCC2(CCCC=CCCC[C@](C)(C(=O)N[C@@H](CCC(N)=O)C(=O)N[C@@H](C)C(=O)N[C@@H](CC(C)C)C(N)=O)NC(=O)[C@H]([C@@H](C)CC)NC(=O)[C@H](C(C)C)NC(=O)[C@H](CC(C)C)NC2=O)NC1=O` (some centres unmarked) [SP-212]: “++ (≤5 but <15: ++)”, “++++ (≥50: ++++)”, 5 to 15 µM and 200 to 400 nM.
For `CCCC[C@@H]1NC(=O)[C@H](CC(C)C)NC(=O)[C@H](C(C)C)NC(=O)[C@@](C)(NC(=O)[C@H](CCC(=O)O)NC(=O)[C@H](CC(=O)O)NC(=O)[C@@H](NC(=O)[C@H](Cc2ccccc2)NC(C)=O)[C@@H](C)CC)CCCC=CCCCC2(CCCC=CCCC[C@](C)(C(=O)N[C@@H](CCCNC(=N)N)C(=O)N[C@@H](C)C(=O)N[C@@H](CC(C)C)C(N)=O)NC(=O)[C@H]([C@@H](C)CC)NC(=O)[C@H](C(C)C)NC(=O)[C@H](CC(C)C)NC2=O)NC1=O` (some centres unmarked) [SP-213] the same measures were “++++ (≥30: ++++)”, “+ (<10: +)”, above 30 µM and above 700 nM.
`CC[C@H](C)[C@H](NC(=O)[C@H](C)NC(C)=O)C(=O)N[C@@H](CC(=O)O)C(=O)N[C@@H](CCC(=O)O)C(=O)N[C@@H](CCC(=O)O)C(=O)N[C@H](C(=O)N[C@@H](CC(C)C)C(=O)N[C@@H](CCSC)C(=O)N[C@@]1(C)CCCC=CCCC[C@@](C)(C(=O)N[C@@H](CCSC)C(=O)N[C@@H](C)C(=O)N[C@@H](CC(C)C)C(N)=O)NC(=O)[C@H]([C@@H](C)CC)NC(=O)[C@H](C(C)C)NC(=O)[C@H](CC(C)C)NC1=O)C(C)C` [SP-217] (Ac-AIDEEVLM[S5]LVI[S5]MAL-NH2; staple 9-13): in experiment [1], the “Viability 1% FBS AVG” value is recorded as “++++ (≥30: ++++)”. Besides, in experiment [2], the “18 h Avg % max inhibition at top conc” value is reported as “+++ (≤25 but <50: +++)” and the EC50 was above 30 µM. In experiment [3], the IC50 is above 700 nM.
On to `CCCC[C@H](NC(=O)[C@H](CC(C)C)NC(=O)[C@@H](NC(=O)[C@H](CCC(=O)O)NC(=O)[C@H](CCC(=O)O)NC(=O)[C@H](CC(=O)O)NC(=O)[C@@H](NC(=O)[C@H](Cc1ccccc1)NC(C)=O)[C@@H](C)CC)C(C)C)C(=O)N[C@@]1(C)CCCC=CCCC[C@@](C)(C(=O)N[C@@H](CCCC)C(=O)N[C@@H](C)C(=O)N[C@@H](Cc2ccccc2)C(N)=O)NC(=O)[C@H]([C@@H](C)CC)NC(=O)[C@H](C(C)C)NC(=O)[C@H](CC(C)C)NC1=O` [SP-220] (Ac-FIDEEVL[Nle][S5]LVI[S5][Nle]AF-NH2; staple 9-13), for which the “Viability 1% FBS AVG” value in experiment [1] is on record as “++++ (≥30: ++++)”. Moreover, in experiment [2], the “18 h Avg % max inhibition at top conc” value is on record as “+ (<10: +)” and the EC50 was above 30 µM. Further, the IC50 in experiment [3] is above 700 nM.
For `CCCC[C@H](NC(=O)[C@H](CC(C)C)NC(=O)[C@@H](NC(=O)[C@H](CCC(=O)O)NC(=O)[C@H](CCC(=O)O)NC(=O)[C@H](C)NC(=O)[C@@H](NC(=O)[C@H](Cc1ccccc1)NC(C)=O)[C@@H](C)CC)C(C)C)C(=O)N[C@@]1(C)CCCC=CCCC[C@@](C)(C(=O)N[C@@H](CCCC)C(=O)N[C@@H](C)C(=O)N[C@@H](CC(C)C)C(=O)N[C@@H](CC(=O)O)C(=O)N[C@@H](C)C(=O)N[C@H](C(N)=O)[C@@H](C)CC)NC(=O)[C@H]([C@@H](C)CC)NC(=O)[C@H](C(C)C)NC(=O)[C@H](CC(C)C)NC1=O` [SP-221] (Ac-FIAEEVL[Nle][S5]LVI[S5][Nle]ALDAI-NH2; staple 9-13) the same measures were “++++ (≥30: ++++)”, “++++ (≥50: ++++)”, 15 to 30 µM and 200 to 400 nM.
Take `CCCC[C@H](NC(=O)[C@H](CC(C)C)NC(=O)[C@@H](NC(=O)[C@H](CCC(=O)O)NC(=O)[C@H](CCC(=O)O)NC(=O)[C@H](CC(=O)O)NC(=O)[C@@H](NC(=O)[C@H](Cc1ccccc1)NC(C)=O)[C@@H](C)CC)C(C)C)C(=O)N[C@@]1(C)CCCC=CCCC[C@@](C)(C(=O)N[C@@H](CCSC)C(=O)N[C@@H](C)C(=O)N[C@@H](CC(C)C)C(N)=O)NC(=O)[C@H]([C@@H](C)CC)NC(=O)[C@H](C(C)C)NC(=O)[C@H](CC(C)C)NC1=O` [SP-224] (Ac-FIDEEVL[Nle][S5]LVI[S5]MAL-NH2; staple 9-13): in experiment [1], the “Viability 1% FBS AVG” value is “++++ (≥30: ++++)”. Further, in experiment [2], the “18 h Avg % max inhibition at top conc” value is given as “++ (≤10 but <25: ++)” and the EC50 was above 30 µM. Further, the IC50 in experiment [3] is 400 to 700 nM.
Regarding `CCCC[C@H](NC(=O)[C@]1(C)CCCC=CCCC[C@](C)(NC(=O)[C@H](CCSC)NC(=O)[C@H](CC(C)C)NC(=O)[C@@H](NC(=O)[C@H](CCC(=O)O)NC(=O)[C@H](CCC(=O)O)NC(=O)[C@H](CC(=O)O)NC(=O)[C@@H](NC(=O)[C@H](Cc2ccccc2)NC(C)=O)[C@@H](C)CC)C(C)C)C(=O)N[C@@H](CC(C)C)C(=O)N[C@@H](C(C)C)C(=O)N[C@@H]([C@@H](C)CC)C(=O)N1)C(=O)N[C@@H](C)C(=O)N[C@@H](CC(C)C)C(N)=O` [SP-225] (Ac-FIDEEVLM[S5]LVI[S5][Nle]AL-NH2; staple 9-13), the “Viability 1% FBS AVG” value in experiment [1] is reported as “++++ (≥30: ++++)”. In experiment [2], the “18 h Avg % max inhibition at top conc” value is “+++ (≤25 but <50: +++)” and the EC50 is above 30 µM. In addition, the IC50 in experiment [3] is above 700 nM.

The values above are taken from patent US20190225650A1, “PEPTIDOMIMETIC MACROCYCLES AND USE THEREOF IN REGULATING HIF1ALPHA” (AILERON THERAPEUTICS, INC., priority 2013, published 2019).
